Test results as given in patent US20250009844A1, “MATURATION OF MUCOSAL DEFENSE AND GUT/LUNG FUNCTION IN THE PRETERM INFANT” (Novozymes A/S, priority 2017, published 2025).
No end group written: not given here.

Columns and labels:
[1] = Prophylactic high fat diet murine model, weight change (Example 1); format: in vivo, mice; conditions: HFD plus hBD-2 1,2 mg per kg per day in diet vs HFD reference group; 10 week study period; p=0.0028
Text: (§1) The overall experimental design is shown in FIG. 1, top panel “Prophylactic study”. Mice: Mice were housed in trios, 4 cages per group. Feed intake was registered daily just before lights were turned off at 6 pm. Individual mice were subjected to experimental procedures in altered order both group and cage wise. Mice were kept at room temperature under a 12-hour light/dark cycle at SPF standard conditions. Diets: For dosing, the average weight was estimated to be 25 grams per mouse. Mice eat approximately 3 grams of feed per mouse per day.
(§2) Treatment regime: Mice were fed either a high fat diet (HFD) or a low fat (LF) control diet. The HFD contained 4 subgroups; a) hBD-2, b) HD5, c) hBD-2/HD5 and d) standard HFD without supplementation of defensins. Defensin concentration was 1,2 mg hBD-2 per kg mouse per day. HD5 was given in equimolar concentration to hBD-2.

[2] = test system: microbiota of the intestine; assay: Prophylactic high fat diet murine model, 16S microbial analyses (Example 1); format: in vivo, mice
Text: as §1, §2
Microbial analyses were carried out to study the microbiota of the intestine. Longitudinal 16S characterization was conducted on 4 paired samples from 60 mice, 240 samples in total. Each mouse was sampled prior to diet change, 1 week post diet change, 4 weeks post diet change and at termination, thus ensuring a thorough characterization of the faecal microbiota as a result of defensin treatment.

BALB/c mice [3] = assay: Prophylactic treatment in murine house dust mite driven model of allergic asthma (Example 5); format: in vivo; conditions: for Increase of airway resistance (airway hyper responsiveness) / Decrease of pulmonary compliance: vs HDM challenged vehicle
Experimental: Treatment regime: Female 7-10 weeks old BALB/c mice were randomly allocated into 5study groups one day prior to study start and subcutaneously (SC) sensitized to house dust mite (100 μg HDM in 200 uL saline plus Freund's complete adjuvant in 0.9% saline). The mice were treated with hBD-2 orally and intranasally respectively at a dose of 1.2 mg/kg/day (0.4 mg/kg TID) starting on day 12 in the morning and continued TID at approximately 6 hours intervals. The last dose was administered on day 14 one hour prior to challenge. The total number of doses was 8 doses or a total of […] hBD-2.Mice were then intranasally (IN) challenged with HDM on day 14 (HDM 25 μg in 50 μL of saline) (FIG. 2).
Airway inflammation: At 48 hours post challenge, bronchoalveolar lavage was performed washing the lungs with 3 volumes of cold PBS (0.4; 0.3 and 0.3 mL, total 1 mL). Total and differential leucocyte cell counts were determined on an automated haematological analyser Sysmex XT-2000iV.
Lung function: Starting 48 hours after HDM challenge, measurements of lung resistance and lung compliance were carried out after methacholine challenge (3.125 MCH1; 6.25 MCH2; 12.5 MCH3 and 25 mg/mL MCH4) by anaesthetized, cannulated mice using DSI's Buxco Finepoint RC system. Data are represented as airway resistance at […] methacholine and as dose responsive curves. Lung sampling for cytokine analysis: After completion of every BAL, lungs were removed from the thorax, snap frozen in liquid nitrogen and stored frozen at −80 degrees Celsius until analysis of cytokine concentration of TNF-α, IL-4, IL-5, IL-6, IL-9, IL-13 and IL-33 in lung homogenate by ELISA.

BALB/c mice [4] = assay: Therapeutic intervention in murine house dust mite/Freund's complete adjuvant driven model of allergic asthma, histopathology and cytokines (Example 7); format: in vivo; conditions: for Histological inflammation of lung tissue: vs HDM challenged vehicle
Experimental: Treatment regime: Female 7-10 weeks old BALB/c mice randomly allocated into 4 study groups one day prior to study start were subcutaneously (SC) sensitized to house dust mite (100 μg HDM in 200 μL saline plus Freund's complete adjuvant in 0.9% saline). Mice were intranasally (IN) challenged with HDM on day 14 (HDM 25 μg in 50 μL of saline). hBD-2 was administered IN or orally (0.4 mg/kg TID IN; 0.4 mg/kg TID orally, 50 μL phosphate buffered saline) on day 14. The initial dose was administered 60 minutes prior to challenge, and the subsequent doses approximately 6 hours apart (FIG. 3, groups 1-4)).
Blood sampling: All terminal blood samples were collected via jugular vein bleeds. Blood was sampled to Li-heparin tubes, put on ice and immediately centrifuged at 4° C. Plasma was separated and stored at −80° C. until the potential SCFA analysis. Lung tissue sampling: The lungs were exposed and excised by gently opening the thorax and by cutting down either side of the sternum and ribs and trimming back. […]
Cellular influx (mononuclears, eosinophils, neutrophils) was assessed semi-quantitatively on H&E stained slides separately for peri-bronchial/bronchiolar and perivascular space as follows: • 0 absent • 1 few scattered inflammatory cells • 2 larger aggregates • 3 marked accumulation of cells
Overall score for inflammation was calculated as the sum of all individual scores. Goblet cell metaplasia, separately at a level of large airways and distal airways, was assessed at PAS-stained slides as follows: • 0 no mucus containing cells along basement membrane • 1 few positive cells along basement membrane with less than 75% of the cytoplasm stained • 2 few positive cells along basement membrane with more than 75% of the cytoplasm stained • 3 numerous positive cells along basement membrane with less than 75% of the cytoplasm stained • 4 numerous positive cells along basement membrane with more than 75% of the cytoplasm stained […]

[5] = intranasal administration, not statistically significantly different from the control

With “human beta defensin 2 (GIGDPVTCLKSGAICHPVFCPRRYKQIGTCGLPGTKCCKKP; ends and bridges not checked; cysteine pairing not given here; listed as Homo sapiens) [hBD-2]” the Weight gain [1] was “gained significantly less weight than the HFD reference group”, the “Abundance of Barnesiella” value ([2]; colon, prophylactic treatment, p<0.03) was “statistically significant increase in abundance of Barnesiella” and the “Abundance of Lactobacillus” value ([2]; colon, prophylactic treatment, p=0.1) was “trend towards lower abundance of Lactobacillus”. The “Microbial presence and abundance (unifrac, genus analysis)” value ([2]; prophylactic oral defensin in HFD, 1,2 mg hBD-2 per kg per day, HD5 equimolar, mix 50%+50%) was “affected primarily the microbial presence”, the “Increase of airway resistance (airway hyper responsiveness)” value (BALB/c mice [3]; intranasal 0.4 mg/kg TID day 12 to day 14, 8 administrations) was “effectively inhibited increase of airway resistance” and the “Decrease of pulmonary compliance” value (BALB/c mice [3]; intranasal 0.4 mg/kg TID day 12 to day 14) was “effectively inhibited”. For the same substance, the “IL-4 concentration in lung tissue homogenate” value (BALB/c mice [3]; [5]) was “trend towards lowering”, the “IL-5 concentration in lung tissue homogenate” value (BALB/c mice [3]; [5]) was “trend towards lowering” and the “IL-6 concentration in lung tissue homogenate” value (BALB/c mice [3]; [5]) was “trend towards lowering”. The “IL-9 concentration in lung tissue homogenate” value (BALB/c mice [3]; [5]) was “trend towards lowering”, the “IL-13 concentration in lung tissue homogenate” value (BALB/c mice [3]; [5]) was “trend towards lowering” and the “TNF-α concentration in lung tissue homogenate” value (BALB/c mice [3]; [5]) was “trend towards lowering”. For the same substance, the “Increase of airway resistance (airway hyper responsiveness)” value (BALB/c mice [3]; oral 0.4 mg/kg TID day 12 to day 14, 8 administrations, 48 hours after HDM challenge) was “effectively inhibited increase of airway resistance”, the “Decrease of pulmonary compliance” value (BALB/c mice [3]; oral 0.4 mg/kg TID day 12 to day 14) was “effectively inhibited” and the “IL-4 concentration in lung tissue homogenate” value (BALB/c mice [3]; oral administration) was “complete normalization of cytokine concentrations”. For the same substance, the “IL-5 concentration in lung tissue homogenate” value (BALB/c mice [3]; oral administration) was “complete normalization of cytokine concentrations”, the “IL-6 concentration in lung tissue homogenate” value (BALB/c mice [3]; oral administration) was “complete normalization of cytokine concentrations” and the “IL-9 concentration in lung tissue homogenate” value (BALB/c mice [3]; oral administration) was “complete normalization of cytokine concentrations”. For the same substance, the “IL-13 concentration in lung tissue homogenate” value (BALB/c mice [3]; oral administration) was “complete normalization of cytokine concentrations”, the “TNF-α concentration in lung tissue homogenate” value (BALB/c mice [3]; oral administration) was “complete normalization of cytokine concentrations” and the “Neutrophil counts in BALF” value (BALB/c mice [3]; oral application, 48 hours post challenge) was “significantly inhibited neutrophil counts”. For the same substance, the “Histological inflammation of lung tissue” value (BALB/c mice [4]; intranasal 0.4 mg/kg TID on day 14) was “effectively inhibited the increase in histological inflammation of lung tissue”, the “Histological inflammation of lung tissue” value (BALB/c mice [4]; oral 0.4 mg/kg TID on day 14) was “effectively inhibited the increase in histological inflammation of lung tissue” and the “IL-5 level in lung tissue homogenate” value (BALB/c mice [4]; oral administration) was “Significant effects”.
